# Source: patent US4690939A, “Anti-hypertensive agents” (University of Miami, priority 1979, dated 1987)
# Non-standard residues stand in square brackets, D forms with d. Residues, ends and D or L forms follow the SMILES beside them. No end group written: not given here. pGlu = O=C1CC[C@@H](C(=O)O)N1
# What was measured:
# ACE = conditions: competitive substrates; cited from earlier work
# human urinary ACE = target: T1, human urinary ACE (Homo sapiens, UniProt P12821); experiment: ACE activity assay (inhibition of benzoyl-GlyHisLeu hydrolysis); format: biochemical; conditions: substrate approximately 1/2 Km (Example 1 assay), read-out: I50
# T1 construct: from tissue; host or cells: human urine
# T1 sequence (P12821 30-1232 limits assumed): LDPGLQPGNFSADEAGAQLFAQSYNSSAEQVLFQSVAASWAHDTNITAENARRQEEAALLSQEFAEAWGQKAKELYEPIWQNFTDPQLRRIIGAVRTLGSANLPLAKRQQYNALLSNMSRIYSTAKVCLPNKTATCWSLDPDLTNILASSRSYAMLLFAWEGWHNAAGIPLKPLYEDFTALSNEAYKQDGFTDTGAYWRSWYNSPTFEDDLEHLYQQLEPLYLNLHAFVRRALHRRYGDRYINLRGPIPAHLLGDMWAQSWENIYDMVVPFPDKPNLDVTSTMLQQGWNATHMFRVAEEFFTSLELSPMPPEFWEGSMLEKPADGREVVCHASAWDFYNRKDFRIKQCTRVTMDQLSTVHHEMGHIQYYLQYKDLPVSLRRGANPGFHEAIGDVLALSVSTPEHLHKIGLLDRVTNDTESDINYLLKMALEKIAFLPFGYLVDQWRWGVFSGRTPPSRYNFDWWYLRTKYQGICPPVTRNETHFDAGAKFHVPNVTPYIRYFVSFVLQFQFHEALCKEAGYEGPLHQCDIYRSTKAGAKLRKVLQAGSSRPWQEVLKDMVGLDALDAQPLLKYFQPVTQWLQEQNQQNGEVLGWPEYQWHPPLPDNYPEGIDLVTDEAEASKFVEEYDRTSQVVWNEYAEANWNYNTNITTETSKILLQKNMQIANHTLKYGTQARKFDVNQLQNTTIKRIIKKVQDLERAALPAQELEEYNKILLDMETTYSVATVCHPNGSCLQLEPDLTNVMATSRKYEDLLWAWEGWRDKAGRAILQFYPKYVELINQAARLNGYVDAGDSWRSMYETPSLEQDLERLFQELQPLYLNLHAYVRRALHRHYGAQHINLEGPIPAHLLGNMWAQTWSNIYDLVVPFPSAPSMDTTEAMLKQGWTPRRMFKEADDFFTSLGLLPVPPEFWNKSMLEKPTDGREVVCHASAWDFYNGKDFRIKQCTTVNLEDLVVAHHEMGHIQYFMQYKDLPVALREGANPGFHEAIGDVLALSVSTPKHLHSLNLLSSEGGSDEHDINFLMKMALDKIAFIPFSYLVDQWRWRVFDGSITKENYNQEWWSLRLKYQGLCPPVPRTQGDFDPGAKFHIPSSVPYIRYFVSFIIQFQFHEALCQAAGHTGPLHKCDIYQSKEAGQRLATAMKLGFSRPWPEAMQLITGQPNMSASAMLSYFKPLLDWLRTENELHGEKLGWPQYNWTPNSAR
# Protocol: These factors include the source of enzyme, its purity, the substrate used and its concentration, and the composition of the assay buffer.
# ACE activity assay. […] To initiate the assay, 40 μl of enzyme and 10 μl of water or inhibitor dissolved in water were preincubated for five minutes at 37° C. […] To terminate the reaction, 1 ml of 0.1 M HCl was added, following which 1 ml of ethyl acetate was added. The mixture was agitated on a rotary mixer and centrifuged briefly to separate the phases.
# For determination of I50 values, enzyme activity in the presence of inhibitor at a series of different concentrations was compared to activity in the absence of inhibitor.
IC50 (human urinary ACE),Compound,Km relative to angiotensin I (ACE)
,C[C@H](NC(=O)[C@H](Cc1c[nH]c2ccccc12)NC(=O)[C@H](CCCCN)NC(=O)[C@@H]1CCC(=O)N1)C(=O)N1CCC[C@H]1C(=O)O [BPP5a] ([pGlu]KWAP-OH),lower Km than angiotensin I
26 nM,CC(=O)N[C@@H](Cc1ccccc1)C(=O)SC[C@@H](C)C(=O)N1CCC[C@H]1C(=O)O [N^α -[3-(N^α -acetyl-L-phenylalanylthio)-2-D-methylpropanoyl]-L-proline],
,RPPGFSPFR [bradykinin],lower Km than angiotensin I
